For test [1], the system named is Mus musculus. The test is described as follows: Improvement of social recognition memory in juvenile unfamiliar male C57Bl6 mouse assessed as reduction in exploration time by measuring discrimination index at 0.1 nmol/uL, ICV administered post acquisition phase and measured after 48 hrs at retention test phase. Type of test: functional, organism-based.
The subject of test [2] is Mus musculus. The test is described as follows: Improvement of social recognition memory in juvenile familiar male C57Bl6 mouse assessed as reduction in exploration time at 0.5 to 25 nmol/uL, ICV administered post acquisition phase and measured after 48 hrs at retention test phase. Format: functional, organism-based. To be noted: dose 0.5-25 nmol/uL.
Test [3] concerns the target Carbonic anhydrase 2 (Homo sapiens) (UniProt P00918).
Description: Binding affinity to human carbonic anhydrase 2 assessed as activation constant by phenol red dye based stopped-flow method
The target of test [4] is Carbonic anhydrase 4 (Homo sapiens) (UniProt P22748).
Description: Binding affinity to human carbonic anhydrase 4 assessed as activation constant by phenol red dye based stopped-flow method
The next test addresses Cholinesterase (Equus caballus, UniProt P81908).
The subject of test [5] is Mus musculus. Briefly: Improvement of social recognition memory in juvenile unfamiliar male C57Bl6 mouse assessed as reduction in exploration time at 0.5 to 25 nmol/uL, ICV administered post acquisition phase and measured after 48 hrs at retention test phase. Format: functional, organism-based. Particulars: dose 0.5-25 nmol/uL.
The test system of test [6] is Mus musculus. Briefly: Improvement of social recognition memory in juvenile familiar male C57Bl6 mouse assessed as reduction in exploration time by measuring discrimination index at 0.1 nmol/uL, ICV administered post acquisition phase and measured after 48 hrs at retention test phase. Type of test: functional, organism-based.
The next test deals with Acetylcholinesterase (Electrophorus electricus, UniProt O42275).
Test [7] has as its system Mus musculus. The test is described as follows: Improvement of social recognition memory in juvenile unfamiliar male C57Bl6 mouse assessed as reduction in exploration time at 0.1 nmol/uL, ICV administered post acquisition phase and measured after 48 hrs at retention test phase. Type of test: functional, organism-based.
Test [8] deals with Mus musculus. The test is described as follows: Improvement of social recognition memory in juvenile familiar male C57Bl6 mouse assessed as reduction in exploration time at 0.1 nmol/uL, ICV administered post acquisition phase and measured after 48 hrs at retention test phase. Format: functional, organism-based.
For test [9], the target named is Carbonic anhydrase 5B, mitochondrial (Homo sapiens) (UniProt Q9Y2D0).
Description: Binding affinity to human carbonic anhydrase 5B assessed as activation constant by phenol red dye based stopped-flow method
Test [10] has as its target Carbonic anhydrase 7 (Homo sapiens) (UniProt P43166).
Description: Binding affinity to human carbonic anhydrase 7 assessed as activation constant by phenol red dye based stopped-flow method
In test [11] the target is Carbonic anhydrase 1 (Homo sapiens) (UniProt P00915).
Description: Binding affinity to human carbonic anhydrase 1 assessed as activation constant by phenol red dye based stopped-flow method

Active and inactive are the calls of the source. No cut-off for these calls is given here.

Experimental findings from ChEMBL document CHEMBL5579900, “Enhanced Recognition Memory through Dual Modulation of Brain Carbonic Anhydrases and Cholinesterases” (J Med Chem, 2024) are described below.

Sequence of Carbonic anhydrase 4 (Homo sapiens) (P22748 whole entry): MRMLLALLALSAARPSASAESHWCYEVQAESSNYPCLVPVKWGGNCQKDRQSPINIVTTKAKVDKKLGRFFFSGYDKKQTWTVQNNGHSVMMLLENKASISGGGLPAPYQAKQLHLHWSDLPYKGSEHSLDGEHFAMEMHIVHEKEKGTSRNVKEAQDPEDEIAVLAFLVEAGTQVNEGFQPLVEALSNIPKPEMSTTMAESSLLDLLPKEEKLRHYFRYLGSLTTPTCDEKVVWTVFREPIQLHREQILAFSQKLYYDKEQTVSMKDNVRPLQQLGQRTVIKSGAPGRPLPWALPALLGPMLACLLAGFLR
Sequence of Carbonic anhydrase 7 (Homo sapiens) (P43166 whole entry): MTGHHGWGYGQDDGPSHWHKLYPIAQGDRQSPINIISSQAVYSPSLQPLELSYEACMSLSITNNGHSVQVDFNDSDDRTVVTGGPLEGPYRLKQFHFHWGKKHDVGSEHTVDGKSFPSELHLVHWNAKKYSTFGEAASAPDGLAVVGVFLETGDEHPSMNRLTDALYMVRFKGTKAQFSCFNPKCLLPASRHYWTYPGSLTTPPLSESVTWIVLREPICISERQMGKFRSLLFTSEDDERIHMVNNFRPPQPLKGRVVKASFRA
Sequence of Carbonic anhydrase 5B, mitochondrial (Homo sapiens) (Q9Y2D0 whole entry): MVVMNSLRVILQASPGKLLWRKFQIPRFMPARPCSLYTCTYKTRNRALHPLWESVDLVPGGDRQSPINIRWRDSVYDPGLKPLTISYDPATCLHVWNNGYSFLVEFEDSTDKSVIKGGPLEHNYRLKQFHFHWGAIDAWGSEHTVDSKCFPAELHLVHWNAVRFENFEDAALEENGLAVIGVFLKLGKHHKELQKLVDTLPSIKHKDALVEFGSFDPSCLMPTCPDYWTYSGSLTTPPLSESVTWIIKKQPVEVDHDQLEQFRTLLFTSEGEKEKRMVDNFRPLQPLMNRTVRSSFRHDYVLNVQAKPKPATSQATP
Sequence of Acetylcholinesterase (O42275 whole entry): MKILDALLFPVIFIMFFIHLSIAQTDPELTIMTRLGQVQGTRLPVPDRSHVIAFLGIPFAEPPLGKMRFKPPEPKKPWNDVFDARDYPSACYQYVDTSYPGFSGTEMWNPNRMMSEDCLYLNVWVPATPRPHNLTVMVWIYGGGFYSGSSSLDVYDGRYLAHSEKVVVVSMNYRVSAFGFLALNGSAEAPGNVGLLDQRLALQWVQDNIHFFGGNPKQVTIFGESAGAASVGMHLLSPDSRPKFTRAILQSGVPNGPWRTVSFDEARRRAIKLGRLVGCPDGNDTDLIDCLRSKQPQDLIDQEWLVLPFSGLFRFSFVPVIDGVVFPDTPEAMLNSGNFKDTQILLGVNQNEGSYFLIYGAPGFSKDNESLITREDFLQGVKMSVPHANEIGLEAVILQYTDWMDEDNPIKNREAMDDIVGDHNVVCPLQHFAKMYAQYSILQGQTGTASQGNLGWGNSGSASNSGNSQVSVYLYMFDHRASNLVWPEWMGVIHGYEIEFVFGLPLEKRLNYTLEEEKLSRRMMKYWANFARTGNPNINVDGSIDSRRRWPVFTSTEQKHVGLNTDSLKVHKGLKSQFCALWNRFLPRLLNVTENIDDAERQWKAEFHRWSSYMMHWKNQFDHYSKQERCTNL
Sequence of Cholinesterase (P81908 whole entry): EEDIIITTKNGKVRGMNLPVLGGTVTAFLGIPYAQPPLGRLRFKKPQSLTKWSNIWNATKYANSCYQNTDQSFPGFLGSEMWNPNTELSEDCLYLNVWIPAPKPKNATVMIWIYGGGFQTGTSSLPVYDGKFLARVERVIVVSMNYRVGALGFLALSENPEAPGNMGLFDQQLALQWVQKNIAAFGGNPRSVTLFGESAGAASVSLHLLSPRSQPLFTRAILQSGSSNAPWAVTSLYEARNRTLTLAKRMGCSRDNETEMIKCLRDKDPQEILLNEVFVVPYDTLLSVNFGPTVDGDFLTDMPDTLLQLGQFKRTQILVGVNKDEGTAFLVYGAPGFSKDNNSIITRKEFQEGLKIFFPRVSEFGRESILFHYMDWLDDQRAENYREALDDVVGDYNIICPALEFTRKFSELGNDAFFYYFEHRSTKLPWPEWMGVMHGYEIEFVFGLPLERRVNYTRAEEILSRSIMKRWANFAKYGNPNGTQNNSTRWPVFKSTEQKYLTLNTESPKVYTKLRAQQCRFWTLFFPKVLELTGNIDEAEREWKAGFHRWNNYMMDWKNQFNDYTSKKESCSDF
Sequence of Carbonic anhydrase 1 (Homo sapiens) (P00915 2-261 limits assumed): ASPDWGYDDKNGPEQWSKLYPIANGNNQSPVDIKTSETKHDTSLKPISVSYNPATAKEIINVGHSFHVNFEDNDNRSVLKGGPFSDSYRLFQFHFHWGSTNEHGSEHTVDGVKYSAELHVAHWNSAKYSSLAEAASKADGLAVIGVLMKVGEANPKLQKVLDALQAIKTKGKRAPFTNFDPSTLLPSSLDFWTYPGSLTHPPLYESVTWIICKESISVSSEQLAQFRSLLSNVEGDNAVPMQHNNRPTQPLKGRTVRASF
Description for Acetylcholinesterase: Inhibition of electric eel AChE by microplate reader based analysis

For orientation: IC50 means the point on the concentration scale where inhibition reaches its midpoint. In the case of `COC(=O)[C@H](Cc1c[nH]cn1)NCCCCCCNc1c2c(nc3ccccc13)CCCC2`, the result in the test with Mus musculus [1], in the test on Mus musculus [6], in the test with Mus musculus [7] and with Mus musculus [8] was inactive. Also, the result in the test on Mus musculus [2] and in the test on Mus musculus [5] was Active. In addition, the KA in [3] (filed as activator) is 76.9 nM; in test [4] (filed as activator), 0.918 µM; in test [9] (filed as activator), 0.893 µM; in test [10] (filed as activator) it was 98 nM; in [11] (filed as activator) it was 266 nM. Also, the IC50 on Cholinesterase was determined as 4.2 nM; on Acetylcholinesterase, 72.1 nM.

As for `CC(C)(C)OC(=O)N[C@@H](Cc1c[nH]c2ccccc12)C(=O)NCCCCCNc1c2c(nc3ccccc13)CCCC2`, the KA in test [3] (filed as activator) came to 2940 nM; in test [4] (filed as activator), 5.67 µM; in test [9] (filed as activator), 7.15 µM; in test [10] (filed as activator), 1020 nM; in [11] (filed as activator), 1010 nM. The IC50 is 0.22 nM against Cholinesterase and 108 nM at Acetylcholinesterase.

For the compound `N[C@@H](Cc1c[nH]cn1)C(=O)NCCCCCNc1c2c(nc3ccccc13)CCCC2`, the result in the test on Mus musculus [1], in the test on Mus musculus [6], in the test on Mus musculus [7] and with Mus musculus [8] was inactive. Moreover, the outcome with Mus musculus [2] and in the test on Mus musculus [5] was Active. The KA in test [3] (filed as activator) came to 65.1 nM; in test [4] (filed as activator) it was 0.757 µM; in test [9] (filed as activator) it was 1.01 µM; in [10] (filed as activator), 96.4 nM; in test [11] (filed as activator) it was 565 nM. The half-maximal inhibitory concentration (IC50) turned out to be 6.8 nM on Cholinesterase and 29.8 nM at Acetylcholinesterase.

Regarding `CC(C)(C)OC(=O)N[C@@H](Cc1c[nH]c2ccccc12)C(=O)NCCCNc1c2c(nc3ccccc13)CCCC2`, the KA was 5180 nM in test [3] (filed as activator); 21.7 µM in [4] (filed as activator); more than 50 µM in [9]; 1920 nM in test [10] (filed as activator); 1920 nM in test [11] (filed as activator). Also, the values for the concentration for half-maximal inhibition (IC50) against Cholinesterase and at Acetylcholinesterase were 0.5 nM and 426 nM, respectively.

For the compound `COC(=O)[C@@H](N)Cc1ccc(OCCCCCCNc2c3c(nc4ccccc24)CCCC3)cc1`, the KA in test [3] (filed as activator) was 295 nM; in test [4] (filed as activator) it was 8.25 µM; in test [9] (filed as activator), 6.16 µM; in test [10] (filed as activator) it was 185 nM; in test [11] (filed as activator), 702 nM. The concentration for half-maximal inhibition (IC50) against Cholinesterase stood at 2.7 nM; against Acetylcholinesterase it was 26.4 nM.

As to `N[C@@H](Cc1ccccc1)C(=O)NCCCCNc1c2c(nc3ccccc13)CCCC2`, the KA in test [3] (filed as activator) stood at 565 nM; in [4] (filed as activator), 7.62 µM; in test [9] (filed as activator), 4.79 µM; in [10] (filed as activator) it was 433 nM; in test [11] (filed as activator) it was 432 nM. Also, the IC50 at Cholinesterase was 9.5 nM; on Acetylcholinesterase, 465 nM.

As to `CC(C)(C)OC(=O)N[C@@H](Cc1cn(C(=O)OC(C)(C)C)cn1)C(=O)NCCCCCNc1c2c(nc3ccccc13)CCCC2`, the KA is 11100 nM in [3] (filed as activator); more than 50 µM in test [4]; 9.05 µM in test [9] (filed as activator); more than 50000 nM in test [10]; more than 50000 nM in test [11]. In addition, the IC50 at Cholinesterase turned out to be 0.57 nM; against Acetylcholinesterase, 141 nM.

Consider `N[C@@H](Cc1ccccc1)C(=O)NCCCCCNc1c2c(nc3ccccc13)CCCC2`, for which the outcome in the test with Mus musculus [1], with Mus musculus [6], with Mus musculus [7] and in the test on Mus musculus [8] was inactive. Also, the result in the test on Mus musculus [2] and with Mus musculus [5] was Active. For the same compound, the KA in test [3] (filed as activator) stood at 93.4 nM; in [4] (filed as activator) it was 2.61 µM; in test [9] (filed as activator), 1.32 µM; in test [10] (filed as activator), 192 nM; in test [11] (filed as activator), 782 nM. The IC50 was found to be 1.9 nM against Cholinesterase and 7.4 nM at Acetylcholinesterase.

For `N[C@@H](Cc1c[nH]cn1)C(=O)NCCCCNc1c2c(nc3ccccc13)CCCC2`, the KA in test [3] (filed as activator) worked out at 199 nM; in test [4] (filed as activator), 0.958 µM; in test [9] (filed as activator), 1.47 µM; in test [10] (filed as activator), 391 nM; in test [11] (filed as activator) it was 972 nM. Also, the half-inhibitory concentration (IC50) at Cholinesterase worked out at 4.1 nM; at Acetylcholinesterase it was 101 nM.

Regarding `N[C@@H](Cc1c[nH]cn1)C(=O)NCCCNc1c2c(nc3ccccc13)CCCC2`, the KA in test [3] (filed as activator) stood at 376 nM; in [4] (filed as activator) it was 0.619 µM; in test [9] (filed as activator), 1.86 µM; in test [10] (filed as activator) it was 281 nM; in test [11] (filed as activator), 581 nM. Also, the IC50 was determined as 5.8 nM on Cholinesterase and 119 nM against Acetylcholinesterase.

`COC(=O)[C@@H](N)Cc1ccc(OCCCCCNc2c3c(nc4ccccc24)CCCC3)cc1`: the KA in [3] (filed as activator) is 372 nM; in test [4] (filed as activator), 16.8 µM; in test [9] (filed as activator) it was 1.73 µM; in [10] (filed as activator) it was 803 nM; in test [11] (filed as activator), 552 nM. Further, the IC50 was 0.048 nM against Cholinesterase and 22.1 nM on Acetylcholinesterase.

Regarding `COC(=O)[C@H](CCCCNC(=O)OCc1ccccc1)NCCCCCNc1c2c(nc3ccccc13)CCCC2`, the KA in test [3] (filed as activator) was determined as 1990 nM; in test [4] (filed as activator), 19 µM; in [9] (filed as activator) it was 1.4 µM; in [10] (filed as activator) it was 1370 nM; in test [11] (filed as activator), 3300 nM. For the same compound, the IC50 was found to be 0.073 nM at Cholinesterase and 12.4 nM against Acetylcholinesterase.

As for `CC(C)(C)OC(=O)N[C@@H](Cc1ccccc1)C(=O)NCCCCCCNc1c2c(nc3ccccc13)CCCC2`, the KA was more than 50000 nM in [3]; more than 50 µM in test [4]; more than 50 µM in [9]; more than 50000 nM in test [10]; more than 50000 nM in [11]. Further, the IC50 stood at 0.091 nM against Cholinesterase and 9.9 nM against Acetylcholinesterase.

As for `CC(C)(C)OC(=O)N[C@@H](Cc1ccccc1)C(=O)NCCCCCNc1c2c(nc3ccccc13)CCCC2`, the KA was more than 50000 nM in test [3]; more than 50 µM in test [4]; more than 50 µM in [9]; more than 50000 nM in test [10]; more than 50000 nM in [11]. Also, the IC50 against Cholinesterase amounted to 0.34 nM; at Acetylcholinesterase it was 243 nM.

As for `COC(=O)[C@H](Cc1ccccc1)NCCCCCCNc1c2c(nc3ccccc13)CCCC2`, the KA in test [3] (filed as activator) was 312 nM; in test [4] (filed as activator), 1.45 µM; in [9] (filed as activator), 5.17 µM; in [10] (filed as activator) it was 397 nM; in test [11] (filed as activator), 992 nM. In addition, the half-maximal inhibitory concentration (IC50) came to 0.21 nM against Cholinesterase and 21.8 nM against Acetylcholinesterase.

On to `N[C@@H](Cc1ccccc1)C(=O)NCCCCCCNc1c2c(nc3ccccc13)CCCC2`, for which the KA in test [3] (filed as activator) is 157 nM; in [4] (filed as activator) it was 4.78 µM; in [9] (filed as activator), 4.64 µM; in test [10] (filed as activator), 160 nM; in test [11] (filed as activator), 481 nM. Further, the IC50 turned out to be 2.7 nM against Cholinesterase and 78 nM against Acetylcholinesterase.

Consider `CC(C)(C)OC(=O)N[C@@H](Cc1ccccc1)C(=O)NCCCNc1c2c(nc3ccccc13)CCCC2`, for which the KA in test [3] is more than 50000 nM; in test [4], more than 50 µM; in [9] it was more than 50 µM; in test [10], more than 50000 nM; in test [11], more than 50000 nM. In addition, the results for the IC50 at Cholinesterase and at Acetylcholinesterase were 0.16 nM and 202 nM, respectively.
